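Test compounds were applied to cells in 96-well plates for 48 hours at 5 doses. GI50 is the concentration that inhibits growth by half.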 Active and inactive are the calls of the source. Cut-off read from the data, not from the text of the source: active = GI50 up to about 1.1 µM and inactive = higher.
Tests used:
Assay in all cases: NCI-60 cell line screen, 48 h
[1] = system: CCRF-CEM
[2] = system: COLO 205
[3] = system: HT-29
[4] = system: MOLT-4
[5] = system: SK-MEL-28
[6] = system: NCI-H23
[7] = system: SF-268
[8] = system: IGROV-1
[9] = system: SK-MEL-2
[10] = system: 786-0
[11] = system: A498
[12] = system: SW-620
[13] = system: TK-10
[14] = system: DMS-114
[15] = system: UACC-257
[16] = system: CAKI-1
[17] = system: U-251
[18] = system: OVCAR-3
[19] = system: HCT-116
[20] = system: EKVX
[21] = system: SF-539
[22] = system: HL-60
[23] = system: SNB-78
[24] = system: KM-20L2
[25] = system: A549
[26] = system: NCI-H460
[27] = system: LOX IMVI
[28] = system: NCI-H522
[29] = system: NCI-H226
[30] = system: SN12C
[31] = system: M19-MEL
[32] = system: SR
[33] = system: HOP-62
[34] = system: UO-31
[35] = system: DMS-273
[36] = system: K562
[37] = system: HCT-15
[38] = system: RPMI-8226
[39] = system: OVCAR-8
[40] = system: SNB-19
[41] = system: DLD-1
[42] = system: SK-MEL-5
[43] = system: SF-295
[44] = system: OVCAR-4
[45] = system: LXFL 529
[46] = system: KM12
[47] = system: UACC-62
[48] = system: HOP-92
[49] = system: SK-OV-3
[50] = system: SNB-75
[51] = system: ACHN

`Cc1c2n(c(=O)[nH]c1=O)C1OC(CO)C(O2)C1N=[N+]=[N-]` (stereo unspecified) was tested, and the GI50 [1] was > 100 µM (inactive), the GI50 [2] was > 100 µM (inactive) and the GI50 [3] was > 100 µM (inactive). For the same compound, the GI50 [4] was > 100 µM (inactive), the GI50 [5] was > 100 µM (inactive) and the GI50 [6] was > 100 µM (inactive). For the same compound, the GI50 [7] was > 100 µM (inactive), the GI50 [8] was > 100 µM (inactive) and the GI50 [9] was > 100 µM (inactive). The GI50 [10] was > 100 µM (inactive), the GI50 [11] was 78 µM (inactive) and the GI50 [12] was > 100 µM (inactive). The GI50 [13] was > 100 µM (inactive), the GI50 [14] was > 100 µM (inactive) and the GI50 [15] was > 100 µM (inactive). For the same compound, the GI50 [16] was > 100 µM (inactive), the GI50 [17] was > 100 µM (inactive) and the GI50 [18] was > 100 µM (inactive). For the same compound, the GI50 [19] was > 100 µM (inactive), the GI50 [20] was > 100 µM (inactive) and the GI50 [21] was > 100 µM (inactive). The GI50 [22] was > 100 µM (inactive), the GI50 [23] was > 100 µM (inactive) and the GI50 [24] was > 100 µM (inactive). The GI50 [25] was > 100 µM (inactive), the GI50 [26] was > 100 µM (inactive) and the GI50 [27] was > 100 µM (inactive). For the same compound, the GI50 [28] was > 100 µM (inactive), the GI50 [29] was > 100 µM (inactive) and the GI50 [30] was > 100 µM (inactive). For the same compound, the GI50 [31] was > 100 µM (inactive), the GI50 [32] was > 100 µM (inactive) and the GI50 [33] was > 100 µM (inactive). The GI50 [34] was > 100 µM (inactive), the GI50 [35] was > 100 µM (inactive) and the GI50 [36] was > 100 µM (inactive). For the same compound, the GI50 [37] was over 100 µM, the GI50 [38] was > 100 µM (inactive) and the GI50 [39] was > 100 µM (inactive). For the same compound, the GI50 [40] was > 100 µM (inactive), the GI50 [41] was > 100 µM (inactive) and the GI50 [42] was > 100 µM (inactive). For the same compound, the GI50 [43] was > 100 µM (inactive), the GI50 [44] was > 100 µM (inactive) and the GI50 [45] was > 100 µM (inactive). For the same compound, the GI50 [46] was > 100 µM (inactive), the GI50 [47] was > 100 µM (inactive) and the GI50 [48] was > 100 µM (inactive). For the same compound, the GI50 [49] was > 100 µM (inactive), the GI50 [50] was > 100 µM (inactive) and the GI50 [51] was > 100 µM (inactive).

Reference: ChEMBL document CHEMBL1201862, “PubChem BioAssay data set” (2004)
